Key:
[1] = tested on: MYSEC (murine yolk sac endothelial cell) cell lines; test: In vitro permeability of LPS-treated MYSEC cells (transwell, streptavidin-HRP); format: cell-based
Method: Permeability was measured by an in vitro method using cell culture and in vivo method using Evans blue dye. To increase permeability, LPS was used in the in vitro method and CLP treatment was used in the in vivo method.
To measure permeability by an in vitro method, MYSEC (murine yolk sac endothelial cell) cell lines were used. MYSEC cell lines were placed in the top chamber of a trans well at 2.5×10^5 cells/well and treated with 300 ng of lipopolysaccharide (LPS) derived from Gram-negative bacteria in the presence of the compound of formula (1a-1) for 24 hours. The medium in the top chamber was replaced with 300 µl of serum-free medium containing 5 µl of streptoavidin-HRP. After 5 minutes, 20 µl of the medium in the lower chamber was taken and the activity of HRP was measured as absorbance at 450 nm.
To determine the mechanism by which the compound of formula (1a-1) improves permeability, the same experiment was performed by knocking down the SIRT1 protein in the MYSEC cell line.

[2] = tested on: tyrosine hydroxylase (TH); test: TH expression in rotenone-treated differentiated SH-SY5Y dopaminergic neurons, western blot; format: cell-based, human
Method: To analyze the effect on the expression of tyrosine hydroxylase (TH) and α-synuclein as neuron-specific proteins, western blot was performed.
SH-SY5Y cell line was treated with retinoic acid and 12-O-tetradecanoylphorbol-13-acetate (TPA) to induce differentiation into TH-secreting neurons for 6 days.
Differentiated dopaminergic neurons were lysed in PRO-PREP (Intronbio), a cell lysis solution containing protease inhibitor cocktail (Gendepot), and electrophoresed in 10% SDS polyacrylamide gels at 20 µg/well. Transfer was performed using PVDF (Merck millipore) as a membrane, and tyrosine hydroxylase antibody, α-synuclein antibody (Cell signaling), and β-actin antibody (Santa Cruz) were used for reaction for more than 2 hours. Protein expression was detected by staining with ECL substrate (Biorad) for development and graphed using the image J program.

[3] = tested on: dopamine transporter (DAT); test: Differentiation of pluripotent stem cells into dopaminergic neurons: DAT; format: cell-based; details: western blot of 5-week differentiation sample
Method: Pluripotent stem cells were seeded in AggreWell plates (stemcell) at 5,000 cells/microwell and cultured for 5 days in E6 medium (GIBCO) to induce embryonic body (EB) formation. For neural rosette formation, EBs were seeded into 35 mm dishes in groups of 30 and cultured for 10 days in N2bF medium. The 35 mm dishes were used after being coated with 15 µg/ml of poly-L-ornithine (sigma) and 1 µg/ml of fibronectin (sigma). The N2Bf medium composition was DMEM/F12 (GIBCO), N2 supplement (stemcell) 1×, 10% NEAA (GIBCO), 55 µM betaMercaptoethanol (GIBCO), bFGF (peprotech) 20 ng/ml. For the formation of spherical neural masses (SNMs), rosette masses were sliced and cultured in petri dishes with N2bF medium. SNMs were no larger than 500 µM in size and were sliced and cultured for 3 to 4 passages. After subculture of SNM, the clumps were broken into small pieces using a tungsten mesh (Nilaco) for the neural progenitor cell (NPC) culture step, and then attached to a PLO/FN-coated dish and cultured in N2bF medium. To differentiate NPCs into dopaminergic neurons, the medium was replaced with an ITS-B27 medium after 2 days of NPC culture. […]
The effect of the compound of formula (1a-1) on differentiation into neurons was evaluated by comparing the expression of tyrosine hydroxylase (TH) and dopamine transporter (DAT) depending on the presence or absence of treatment with the compound of formula (1a-1).

IL-6 = test: Serum IL-6 after CLP treatment, ELISA; format: in vivo, mouse; details: treated at 6 and 16 hours after CLP, serum at 18 hours
Method: After CLP treatment, the inflammatory cytokines TNF-α and IL-6 were analyzed by ELISA.
Specifically, after treating the compound of formula (1a-1) at 6 and 16 hours after CLP treatment, mouse blood was collected at 18 hours and allowed to stand at room temperature for 1 hour, then centrifuged at 3000 rpm for 10 minutes to obtain serum to analyze the amount of TNF-α and IL-6.

SIRT1 = SIRT1 expression in HUVECs by western blot; format: cell-based, human; details: 24 hours
Method: To determine the increase in SIRT1 expression by the compound of formula (1a-1) prepared in Example 1 above in human umbilical vein endothelial cells (HUVECs), HUVECs were seeded at 5 × 10^5/4 ml in a 60 mm cell culture dish using ECBM2 medium (Promocell) and stabilized for 12 hours in an incubator maintained at 37°C and 5% CO2, respectively.
The cells were then treated with 10 nM, 100 nM and 1000 nM of the compound of formula (1a-1) prepared in Example 1 above, respectively, and incubated for another 24 hours, and then SIRT1 expression was determined by western blot.

CCCCCCCCCCCCCC[C@H]1OP(=O)(O)O[C@H]1[C@@H](N)CO.Cl [formula (1a-1), (4S,5R)-4-((S)-1-amino-2-hydroxyethyl)-2-hydroxy-5-tetradecyl-1,3,2-dioxaphosphoran-2-oxide hydrochloride]
effect on LPS-induced permeability after knockdown of the SIRT1 protein ([1]; MYSEC cell line with SIRT1 knockdown, LPS): does not show the effect | LPS-induced increased permeability ([1]; MYSEC cell line, 300 ng LPS, 24 hours): restores the LPS-induced increased permeability to normal | effectiveness on TH and α-synuclein expression compared with control drug [2]: more effective than resveratrol | expression of TH decreased by rotenone ([2]; differentiated dopaminergic neurons treated with rotenone): restored | DAT glycosylation [3]: increased | amount of inflammatory cytokine IL-6 (IL-6): significantly decreased | expression of SIRT1 (SIRT1; 10 nM): increases | EC50 (SIRT1; read-out: concentration (EC50) that increased the expression of SIRT1 by 50%): ~0.01 µM

From patent publication EP4624482A1, “PYRIMIDOPYRIMIDINONE COMPOUND AND PHARMACEUTICAL COMPOSITION COMPRISING SAME” (Axceso Biopharma Co., Ltd., priority 2022, dated 2024)
